# Test system: acyl-CoA oxidase (ACO) gene
# Test: ACO mRNA expression level in liver of ob/ob mice
# Assay type: in vivo
# Conditions: 500 mg/kg orally once a day; autopsy 38th day; divided by GAPDH mRNA; vs control groups; FIG. 5
# Protocol: (§1) Male ob/ob mice of 5 weeks old (purchased from Charles River Laboratories Japan, Inc.) were preliminarily fed for one week by an experimental diet containing 25% by weight ratio of fats. Then, they were divided into groups so that their body weights and blood glucose were the same between the groups. After the division, N-lauroyl-L-valine (500 mg/kg) was orally administered once a day, and a control group was set, to which vehicle was administered. […] The non-fasting blood glucose was measured on the 6th, 14th and 26th day after starting the administration. The blood glucose was measured by collecting 6 μL of the blood from the caudal vein and using a Fuji DriChem system (produced by FUJIFILM Medical Co., Ltd.). […] Further, on the 27th day after starting the administration, the blood was collected by retroorbital bleeding, and the insulin and triglyceride concentrations in plasma were measured. […] SYBER GREEN Master Mix (ABI) and a primer for amplifying uncoupling protein 2 (UCP2) gene, acyl-CoA oxidase (ACO) gene or glyceraldehyde-3-phosphate dehydrogenase (GAPDH) gene were added to cDNA corresponding to 7.5 ng of total RNA, and the gene expression level was measured with ABI 7700 detector. […]
row,Structure (SMILES),ACO mRNA expression level in the liver
1,"CCCCCCCCCCCC(=O)N[C@H](C(=O)O)C(C)C [Example 20, N-lauroyl-L-valine]",significantly increased

# Test system: ob/ob mice
# Test: Oral administration to ob/ob mice on 25% fat diet: blood glucose, glycated hemoglobin, plasma insulin and triglyceride
# Assay type: in vivo
# Conditions: 500 mg/kg orally once a day; 6th, 14th and 26th day vs before starting the administration; FIG. 1
# Protocol: Male ob/ob mice of 5 weeks old (purchased from Charles River Laboratories Japan, Inc.) were preliminarily fed for one week by an experimental diet containing 25% by weight ratio of fats. Then, they were divided into groups so that their body weights and blood glucose were the same between the groups. After the division, N-lauroyl-L-valine (500 mg/kg) was orally administered once a day, and a control group was set, to which vehicle was administered. Taking into consideration the possibility that the effect of N-lauroyl-L-valine depends on the diet intake, pair-feeding group was also set as a control group in addition to the vehicle administered group, to which vehicle was daily administered in an average diet intake per a day of the N-lauroyl-L-valine administered group and, therefore, the diet intake thereof is quite the same as that of the N-lauroyl-L-valine administered group during the test period. The non-fasting blood glucose was measured on the 6th, 14th and 26th day after starting the administration. The blood glucose was measured by collecting 6 μL of the blood from the caudal vein and using a Fuji DriChem system (produced by FUJIFILM Medical Co., Ltd.). On the 26th day after starting the administration, the blood was collected by retroorbital bleeding, and 5 μL of its blood was used to conduct the measurement of glycated hemoglobin with the analyzer (HLC-723 GHbV, by Tosoh Technosystem). Further, on the 27th day after starting the administration, the blood was collected by retroorbital bleeding, and the insulin and triglyceride concentrations in plasma were measured. The measurement of the insulin concentration in plasma was conducted by using an insulin measurement kit (by Morinaga Institute of Biological Science, Inc.). The measurement of the triglyceride concentration in plasma was conducted by using a Fuji DriChem system. On the 38th day after staring the administration, autopsy was conducted to collect the liver of the mouse. Then, total RNA was extracted from the frozen liver by using ISOGEN (by Nippon Gene Co., Ltd.), and 0.5 μg of total RNA, oligo (dT) (by Invitrogen) and SuperScript III reverse transcriptase (by Invitrogen) were used to prepare cDNA. SYBER GREEN Master Mix (ABI) and a primer for amplifying uncoupling protein 2 (UCP2) gene, acyl-CoA oxidase (ACO) gene or glyceraldehyde-3-phosphate dehydrogenase (GAPDH) gene were added to cDNA corresponding to 7.5 ng of total RNA, and the gene expression level was measured with ABI 7700 detector. The expression levels of UCP2 and ACO genes were amended by being divided by the expression level of GAPDH mRNA. Two kinds of primers for amplifying UCP2 gene were used wherein the base sequences were ggcctctggaaagggactt and […] from 5′. […]
row,Structure (SMILES),non-fasting blood glucose
1,"CCCCCCCCCCCC(=O)N[C@H](C(=O)O)C(C)C [Example 20, N-lauroyl-L-valine]",decreased

# Same assay, conditions: 500 mg/kg orally once a day; 26th day; vs vehicle group and pair-feeding group; FIG. 2
row,Structure (SMILES),glycated hemoglobin level
1,"CCCCCCCCCCCC(=O)N[C@H](C(=O)O)C(C)C [Example 20, N-lauroyl-L-valine]",significantly lower

# Same assay, conditions: 500 mg/kg orally once a day; 27th day vs before; increased in control groups; FIG. 3
row,Structure (SMILES),fasting insulin concentration in plasma
1,"CCCCCCCCCCCC(=O)N[C@H](C(=O)O)C(C)C [Example 20, N-lauroyl-L-valine]",such increase was not seen

# Same assay, conditions: 500 mg/kg orally once a day; 27th day; vs control groups; FIG. 6
row,Structure (SMILES),triglyceride concentration in plasma
1,"CCCCCCCCCCCC(=O)N[C@H](C(=O)O)C(C)C [Example 20, N-lauroyl-L-valine]",tended to be lower

# Test system: uncoupling protein 2 (UCP2) gene
# Test: UCP2 mRNA expression level in liver of ob/ob mice
# Assay type: in vivo
# Conditions: 500 mg/kg orally once a day; autopsy 38th day; divided by GAPDH mRNA; vs control groups; FIG. 4
# Protocol: as §1
row,Structure (SMILES),UCP2 mRNA expression level in the liver
1,"CCCCCCCCCCCC(=O)N[C@H](C(=O)O)C(C)C [Example 20, N-lauroyl-L-valine]",significantly increased

# Test system: 3T3-L1 cells
# Test: Adiponectin output in culture supernatant of differentiated 3T3-L1 cells (LANCE immunoassay)
# Assay type: cell-based, mouse
# Conditions: adiponectin concentration in culture supernatant, test compound 7 μg/mL, 72 hours; control without compound 24 ng/mL
# Protocol: 3T3-L1 cells were suspended in Dulbecco's Modified Eagle Medium (GIBCO, 12430-054) containing 10% fetal bovine serum to become 1.5×10^5 cells/mL and seeded. After the incubation in the CO2 incubator at 37° C. for 72 hours, the medium was removed by suction. Then, the medium was exchanged for Dulbecco's Modified Eagle Medium containing 10 μg/mL of insulin, 1 μM of dexamethasone, 0.5 mM of IBMX (3-isobutyl-1-methylxanthine) and 10% fetal bovine serum, and further incubated in the CO2 incubator at 37° C. for 48 hours. The test compound was added to the medium, and then the incubation was continued for 72 hours.
# Eu (Europium) chelate labeling of anti-mouse adiponectin antibody (AF1119, by R&D Systems) was conducted by using 100 μg of LANCE Eu-W1024-ITC chelate (AD0013 by Perkin Elmer), which is a Eu chelate labeling reagent, to 200 μg of the antibody in accordance with the method described in the manual of the manufacturer. Biotin labeling of anti-mouse adiponectin antibody (AF1119, by R&D Systems) was conducted by using 26.8 μg of NHS-Biotin (1418165, Biotin Labeling Kit, by Boehringer Mannheim), which is a biotin labeling reagent, to 100 μg of the antibody in accordance with the method described in the manual.
# The amount of adiponectin in the cell culture supernatant was measured as follows. The culture supernatant was diluted fivefold with TBS (Tris-buffered saline; 20 mM Tris-HCl pH 7.4, 0.15M NaCl) containing 0.1% bovine serum albumin (BSA), and 10 μL thereof was mixed with 300 ng/mL of the Eu chelate labeled antibody, 300 ng/mL of the biotin labeled antibody, 2.5 μg/mL of Streptavidin-APC (AD0201, by Perkin Elmer) and 10 μL of a TBS solution containing 0.1% BSA on the 384-well plate. After preserving the mixture at room temperature for 2 days, LANCE count was measured by using ARVO-SX multilabel counter (by Perkin Elmer) in accordance with the protocol of the LANCE method. At the same time, the mouse adiponectin preparation (8060-K, by LINCO) was also measured, and the concentration of adiponectin in the culture supernatant was calculated from the calibration curve of the preparation.
# Adiponectin outputs were measured by the same method as that of Examples 1 to 31.
row,Structure (SMILES),Adiponectin output
1,CCCCCCCCCCCC(=O)NC(C)(CC)C(=O)O (racemic) [Example 16],78 ng/mL
2,CCCCCCCCCCCC(=O)NC(C)(C(=O)O)C(C)C (racemic) [Example 18],87 ng/mL
3,CCCCCCCCCCCC(=O)NC(C(N)=O)C(C)C (racemic) [Example 21],70 ng/mL
4,CCCCCCCCCCCCNC(=O)C(NC(=O)CCCCCCCCCCC)C(C)C (racemic) [Example 22],64 ng/mL
5,"CCCCCCCCCCCC(=O)N[C@H](C(=O)NC1CCCCC1)C(C)C (racemic) [Example 23, N-lauroyl-L-valine cyclohexylamide]",65 ng/mL
6,C=CCCCCCCCCC(=O)N[C@@H](Cc1ccccc1)C(=O)O [Example 8],54 ng/mL
7,CCCCCCCCCCC(=O)N[C@@H](Cc1ccccc1)C(=O)O [Example 12],58 ng/mL
8,CCCCCCCCCCCC(=O)NC(C)(C)C(=O)O [Example 17],81 ng/mL
9,CCCCCCCCCCCC(=O)N[C@@H](CCSC)C(=O)O [Example 19],71 ng/mL
10,CCCCCCCCCCCC(=O)N(CC)[C@H](C(=O)O)C(C)C [Example 24],66 ng/mL

# Same assay, conditions: adiponectin concentration in culture supernatant, test compound 12.5 μM, 72 hours; control without compound 24 ng/mL
row,Structure (SMILES),Adiponectin output
1,CCCCCCCCC(=O)N[C@H](C(=O)O)[C@@H](C)CC [Example 2],58 ng/mL
2,CCCCCCCCC(=O)N[C@@H](CC(C)C)C(=O)O [Example 3],42 ng/mL
3,CCCCCCCCC(=O)N[C@H](C(=O)O)C(C)C [Example 4],64 ng/mL
4,CCCCCCCCCC(=O)N[C@H](C(=O)O)[C@@H](C)CC [Example 5],74 ng/mL
5,CCCCCCCCCC(=O)N[C@@H](CC(C)C)C(=O)O [Example 6],54 ng/mL
6,C=CCCCCCCCCC(=O)N[C@@H](CC(C)C)C(=O)O [Example 7],61 ng/mL
7,CCCCCCCCCC(=O)N[C@H](C(=O)O)C(C)C [Example 9],81 ng/mL
8,C=CCCCCCCCCC(=O)N[C@H](C(=O)O)C(C)C [Example 10],59 ng/mL
9,CCCCCCCCCCC(=O)N[C@@H](CC(C)C)C(=O)O [Example 11],45 ng/mL
10,CCCCCCCCCCCC(=O)N[C@H](C(=O)O)[C@@H](C)CC [Example 14],84 ng/mL
11,CCCCCCCCCCCC(=O)N[C@@H](CC(C)C)C(=O)O [Example 15],67 ng/mL
12,"CCCCCCCCCCCC(=O)N[C@H](C(=O)O)C(C)C [Example 20, N-lauroyl-L-valine]",92 ng/mL
13,CCCCCCCCCCCCCC(=O)N[C@H](C(=O)O)[C@@H](C)CC [Example 25],93 ng/mL
14,CCCCCCCCCCCCCC(=O)N[C@@H](CC(C)C)C(=O)O [Example 26],56 ng/mL
15,CCCCCCCCCCCCCCCC(=O)N[C@@H](CC(C)C)C(=O)O [Example 27],57 ng/mL
16,CCCCCCCCCCCCCCCC(=O)N[C@H](C(=O)O)C(C)C [Example 28],31 ng/mL
17,CCCCCCCCCCCCCCCCCC(=O)N[C@@H](CC(C)C)C(=O)O [Example 29],43 ng/mL
18,CCCCCCCCCCCCCCCCCC(=O)N[C@H](C(=O)O)C(C)C [Example 30],43 ng/mL
19,CCCCCCCCCCCCCCCCCCCCCC(=O)N[C@H](C(=O)O)C(C)C [Example 31],42 ng/mL

# Same assay, conditions: adiponectin output as ratio to that of Example 20 in Table 1; same method as Examples 1 to 31
row,Structure (SMILES),Adiponectin Ratio to Exam. 20 of Table 1
1,CCCCCCCCCCCC(=O)NC(C(=O)O)C(C(F)(F)F)C(F)(F)F (racemic) [Example 34],25%
2,CCCCCCCCCCCC(=O)NC(Cc1ccccc1C)C(=O)O (racemic) [Example 38],31%
3,CCCCCCCCCCCC(=O)NC(C)(Cc1ccccc1)C(=O)O (racemic) [Example 41],22%
4,CCCCCCCCCC(=O)N[C@H](C(=O)O)C(C)(C)C [Example 32],56%
5,CCCCCCCCCCCC(=O)N[C@H](C(=O)O)C(C)(C)C [Example 33],103%
6,CCCCCCCCCCCC(=O)NC(C(=O)O)C(C)CC (centres unmarked) [Example 35],83%
7,CCCCCCCCCCCC(=O)N[C@H](C(=O)O)c1ccccc1 [Example 36],33%
8,CCCCCCCCCCCC(=O)N[C@@H](Cc1ccc(OC)cc1)C(=O)O [Example 37],46%
9,CCCCCCCCCCCC(=O)N[C@H](C(=O)O)C1CCCCC1 [Example 39],41%
10,CCCCCCCCCCCC(=O)N[C@H](C(=O)O)C(c1ccccc1)c1ccccc1 [Example 40],14%
11,CCCCCCCCCCCC(=O)N[C@@H](Cc1ccc(Cl)cc1)C(=O)O [Example 42],44%
12,CCCCCCCCCCCC(=O)N[C@@H](Cc1csc2ccccc12)C(=O)O [Example 43],20%
